Marks after values point to notes of the source that are not given here.
Key:
C2C12 myotubes = experiment: QRT-PCR of fatty acid transport, oxidation, mitochondrial biogenesis genes in C2C12 myotubes; type: cell-based, mouse; settings: 10 nM, 12 or 24 hours
Method: A. ULMA induces expression of fatty acid transport, oxidation, mitochondrial biogenesis and energy dissipation related genes. C2C12 myotubes in 6 well plates were treated with 10 nM ULMA or vehicle (designated as 0 h; 0.1% vol/vol DMSO) for 12 h or 24 h. Following treatment, RNA was extracted and 1 μg RNA from each well was used to prepare cDNA and the cDNAs were then used for quantitative real-time PCR for indicated genes. Beta-actin was used as normalizing control. The relative mRNA level was quantitated using ddCT method and plotted as fold activity over vehicle treated control (0 h). Data is mean±SEM of 4-6 independent experiments performed in triplicates. *p<0.05, **p<0.01, ***p<0.001 compared to vehicle (DMSO) treated controls as determined by two tailed unpaired student's t-test.
Adiponectin enhances transcription of genes regulating fatty acid transport, fatty acid-oxidation and mitochondrial uncoupling proteins in skeletal muscle and myotubes (T. Kadowaki, T. Yamauchi, N. Kubota, K. Hara, K. Ueki, K. Tobe. J Clin Invest. 116(7): 1784-92. 2006; S. Dridi, M. Taouis. Journal of Nutritional Biochemistry 20 (2009): 831-839. 2009; M. Iwabu, T. Yamauchi, M. Okada-Iwabu, K. Sato, T. Nakagawa, M. Funata, M. Yamaguchi, S. Namiki, R. Nakayama, M. Tabata, H. Ogata, N. Kubota, I. Takamoto, Y. K. Hayashi, N. Yamauchi, H. Waki, M. Fukayama, I. Nishino, K. Tokuyama, K. Ueki, Y. Oike, S. Ishii, K. Hirose, T. Shimizu, K. Touhara, T. Kadowaki. Nature; 464(7293):1313-1319. 2010). The ability of ULMA to influence expression of these genes were checked in c2c12 myotubes. C2C12 myotubes in 6 well plates were treated with 10 nM ULMA or vehicle (DMSO) for 12 hours or 24 hours. Following treatment, the cells were washed with ice-cold PBS and RNA was extracted using Trizol (Ambion) according to manufacturer's instructions. The RNAs were quantitated using a spectrophotometer (nanophotometer; Implen GMBH) and 1 μg RNA was used to prepare cDNA using a cDNA synthesis kit (Applied Biosystems). cDNAs were then used for quantitative real-time PCR for indicated genes (FIG. 3A) using Veriquest SYBR green QRT-PCR mastermix (US Biologicals) and a Roche lightcycler 480 thermal cycler (Roche Diagnostics). Beta-actin was used as normalizing control. The relative mRNA level was quantitated using ddCT method. […] Adiponectin is also known to induce muscle and adipose glucose transporter 4 (GLUT4) expressions; and the ability of ULMA to induce the expression of GLUT4, PPAR and PGC-1α was investigated by western blotting. C2C12 myotubes in 10 cm dish were treated with vehicle (DMSO) or 10 nM ULMA in DMSO for 24 hours or 48 hours followed by western blotting as described [S. K. Dwivedi, N. Singh, R. Kumari, J. S. Mishra, S. Tripathi, P. Banerjee, P. Shah, V. Kukshal, A. M. Tyagi, A. N. Gaikwad, R. K. Chaturvedi, D. P. Mishra, A. K. Trivedi, S. Sanyal, N. Chattopadhyay, R. Ramachandran, M. I. Siddiqi, A. Bandyopadhyay, A. Arora, T. Lundasen, S. P. Anakk, D. D. Moore, S. Sanyal. Mol Endocrinol. 25(6): 922-932. 2011).

wistar rats = experiment: Dexamethasone induced loss of body weight and death in rats; settings: for Final body weight (g) / Survival/group (%): 2 weeks
Method: All animal experiments were conducted in accordance with current legislation on animal experiments [Institutional Animal Ethical Committee (IAEC)] at C.D.R.I. In all animal experiments, rats were individually housed at 21° C., in 12-h light:12-h dark cycles. All animals had access to normal chow diet and water ad libitum.
Food intake was measured daily and the rats were weighed each week. The rats were fasted overnight (O/N) on day 14th and on day 15th oral glucose tolerance test was performed. Following oral glucose tolerance test (OGTT), rats were kept with food and water ad libitum for one day. On day 16th, rats were fasted again O/N and then euthanized. At autopsy, from 5 animals/group, tissues were collected and snap frozen in liquid nitrogen. Blood was collected from cardiac punctures. Plasma was separated from whole blood by centrifugation at 3000 rpm for 20 min immediately after collection of blood and stored at −80° C. until further analysis. […] (quadriceps) skeletal muscles were processed for RNA and protein extraction, followed by quantitative real-time PCR (QRT-PCR) analysis. Two animals from each group were used for photography post autopsy.

AdipoRs = experiment: Competitive radio-ligand binding assay with 125I-adiponectin on C2C12 myotubes; design: species or system mouse; settings: 10^-11 M to 10^-6 M unlabeled ULMA, 12 hours, 4° C.
Method: C. ULMA competes with ^125I-globular adiponectin (gAd) for binding to AdipoRs. C2C12 myotubes in 12 well plates were incubated with 2 μl of 10 uCi/ml ^125I-adiponectin (this amount gives 50% binding to the cells) in ice-cold PBS and 0.1% bovine serum albumin for 12 h in presence or absence of different doses of unlabeled ULMA (10^−11M, 10^−10 M, 10^−9 M, 10^−8 M, 10^−7M, 10^−6M) at 4° C. The cells were then washed 20 times in PBS and then lysed. 5 μl of the lysate was used for protein estimation using standard Bradford assay and rest of the lysate was used for measuring radioactivity in a gamma-counter (Cole Palmer). The count per minute was normalized with protein concentration and plotted as % binding compared to wells treated with vehicle only (0.1% vol/vol DMSO). Data represents mean±SEM from three experiments performed in triplicates.
Competitive Radio-Ligand Binding Assay
Further validation of AdipoR-ULMA interaction was obtained using a competitive radio-ligand binding assay. […] 5 μl of the lysate was used for protein estimation using standard Bradford assay and rest of the lysate was used for measuring radioactivity in a gamma-counter (Cole Palmer). […]

SMILES: O=C1c2c(cc(O)c([C@@H]3O[C@H](CO)[C@@H](O)[C@H](O)[C@H]3O)c2O)O[C@@H](c2ccc(O)c(O)c2)[C@@H]1O [ULMA, (2S,3S)-(+)-3′,4′,5,7-tetrahydroxydihydroflavonol-6-C-β-D-glucopyranoside]
- ACOX1 mRNA expression (C2C12 myotubes): enhanced expressions
- CD36 mRNA expression (C2C12 myotubes): induced expression
- CPT1B mRNA expression (C2C12 myotubes): enhanced expressions
- FABP3 mRNA expression (C2C12 myotubes): induced expression
- PGC-1α mRNA expression (C2C12 myotubes): induced expression
- PPARα mRNA expression (C2C12 myotubes): induced expression
- fatty acyl CoA synthetase mRNA expression (C2C12 myotubes): enhanced expressions
- uncoupling protein 2 mRNA expression (C2C12 myotubes): induced expressions
- uncoupling protein 3 mRNA expression (C2C12 myotubes): induced expressions
- Final body weight (g) (wistar rats; Dex + ULMA-1 mg): 176.5 ± 5.9^c g
- Survival/group (%) (wistar rats; Dex + ULMA-1 mg): 73.3%
- Final body weight (g) (wistar rats; Dex + ULMA-5 mg): 192.7 ± 3.8^b,c g
- Survival/group (%) (wistar rats; Dex + ULMA-5 mg): 100%
- change in body weight in control animals (wistar rats; rat, in vivo): did not cause any significant change
- displacement of 125I-adiponectin binding by cold ULMA (AdipoRs): dose-dependently replaced 125I-adiponectin binding

From patent US20160193240A1, “Ulmoside-A: Useful For Prevention Or Cure Of Metabolic Diseases” (COUNCIL OF SCIENTIFIC & INDUSTRIAL RESEARCH, priority 2013, published 2016)
